For data set [1], the target named is recombinant full-length human hydroxyacid oxidase 1 (HAO1), the equivalents of hGOX (Homo sapiens (Human), UniProt Q9UJM8). The experiment in a line: In-vitro human glycolate oxidase (hGOX) assay (Amplex red fluorescence). In kind it is biochemical. The following applies: 6 nM recombinant human GO, 85 μM glycolate, 10 min preincubation. The method, boiled down:
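Activity was read as Amplex Red fluorescence (560/590 nm), with 50 μM reagent added after a 10 min room-temperature incubation. The enzyme, full-length human HAO1, was in pH 7.4 HEPES buffer containing KCl, NaCl, MgCl2 and 0.01% Triton X-100.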

Data set [2] is described as follows: In-vivo pharmacokinetic evaluation (exposure, AUC fold-over Example 1). The following applies: male CD-1 mice, 10 mg/kg oral gavage in 20% (2-Hydroxypropyl)-β-cyclodextrin, plasma at 0.5, 2 and 6 hours post-dose; AUC expressed as fold-over Example 1. Here is the method: In-vivo exposure of test compounds was determined in 5-6 week old male CD-1 mice. Mice (n=2/compound) received 10 mg/kg of each compound formulated in 20% (2-Hydroxypropyl)-β-cyclodextrin (10 μL/g) by oral gavage. At 0.5 hours, 2 hours, and 6 hours post-dose, blood samples were collected from the submandibular vein using EDTA as an anticoagulant and stored on ice. Plasma samples were obtained by centrifugation at 4° C. and were analyzed immediately or stored at −20° C. until analysis. Compounds were extracted from mouse plasma with acetonitrile and quantified by LC-MS-MS in the negative ion mode using a standard curve.

pIC50: −log10 of the molar value.

What is called pIC50 is the negative decadic logarithm of the IC50, by convention in mol/L.

Sequence of recombinant full-length human hydroxyacid oxidase 1 (HAO1), the equivalents of hGOX (Q9UJM8 whole entry): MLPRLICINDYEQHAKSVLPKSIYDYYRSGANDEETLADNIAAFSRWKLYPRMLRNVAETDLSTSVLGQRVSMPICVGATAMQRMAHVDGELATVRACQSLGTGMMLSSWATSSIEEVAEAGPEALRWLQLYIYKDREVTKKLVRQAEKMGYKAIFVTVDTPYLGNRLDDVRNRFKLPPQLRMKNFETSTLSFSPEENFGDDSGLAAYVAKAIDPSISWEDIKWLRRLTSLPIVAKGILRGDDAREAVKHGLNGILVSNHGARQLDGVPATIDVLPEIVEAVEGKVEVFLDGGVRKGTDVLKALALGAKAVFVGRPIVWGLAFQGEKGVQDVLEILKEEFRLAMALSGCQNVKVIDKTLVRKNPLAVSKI

`CC(C)C#Cc1cccc(Oc2[nH]nnc2C(=O)O)c1` [Example 10, 5-(3-(3-Methylbut-1-ynyl)phenoxy)-1H-1,2,3-triazole-4-carboxylic Acid]: in data set [1], the pIC50 was 7.55. For the same molecule, the “AUC Fold over Ex. 1” value in data set [2] turned out to be 1.6.

Consider `O=C(O)c1nn[nH]c1Oc1cccc(C#CCc2ccc(F)cc2)c1` [Example 354, 5-(3-(3-(4-Fluorophenyl)prop-1-ynyl)phenoxy)-1H-1,2,3-triazole-4-carboxylic Acid], for which, in data set [1], the negative logarithm of the IC50 (pIC50) is 8.30. The “AUC Fold over Ex. 1” value in data set [2] amounted to 2.4.

Take `O=C(O)c1nn[nH]c1Oc1cccc(C#Cc2nccs2)c1` [Example 342, 5-(3-(2-(Thiazol-2-yl)ethynyl)phenoxy)-1H-1,2,3-triazole-4-carboxylic Acid]: in data set [1], the negative logarithm of the IC50 (pIC50) was 8.70. Further, in data set [2], the “AUC Fold over Ex. 1” value was 0.4.

`O=C(O)c1nn[nH]c1Oc1cccc(C#CCC2CCCCC2)c1` [Example 346, 5-(3-(3-Cyclohexylprop-1-ynyl)phenoxy)-1H-1,2,3-triazole-4-carboxylic Acid]: the pIC50 in data set [1] was 8.52. Moreover, the “AUC Fold over Ex. 1” value in data set [2] is given as 0.7.

With `O=C(O)c1nn[nH]c1Oc1ccc(C#CC2CCC2)cc1` [Example 24, 5-(4-(2-Cyclobutylethynyl)phenoxy)-1H-1,2,3-triazole-4-carboxylic Acid], the negative logarithm of the IC50 (pIC50) in data set [1] was 7.80. Also, the “AUC Fold over Ex. 1” value in data set [2] worked out at 0.3.

For `Cc1cccc(C#Cc2ccc(Oc3[nH]nnc3C(=O)O)cc2)n1` [Example 293, 5-(4-(2-(6-Methylpyridin-2-yl)ethynyl)phenoxy)-1H-1,2,3-triazole-4-carboxylic Acid], the negative logarithm of the IC50 (pIC50) in data set [1] is 8.30. Besides, in data set [2], the “AUC Fold over Ex. 1” value is given as 0.1.

For the molecule `COc1ccc(C#Cc2cccc(Oc3[nH]nnc3C(=O)O)c2)cn1` [Example 284, 5-(3-(2-(6-Methoxypyridin-3-yl)ethynyl)phenoxy)-1H-1,2,3-triazole-4-carboxylic Acid], in data set [1], the pIC50 is 8.30. Besides, the “AUC Fold over Ex. 1” value in data set [2] is 0.2.

As to `CCCC#Cc1cccc(Oc2[nH]nnc2C(=O)O)c1` [Example 300, 5-(3-(Pent-1-ynyl)phenoxy)-1H-1,2,3-triazole-4-carboxylic Acid], the negative logarithm of the IC50 (pIC50) in data set [1] is 8.05. The “AUC Fold over Ex. 1” value in data set [2] is recorded as 2.5.

With `O=C(O)c1nn[nH]c1Oc1cccc(C#CC2CCC(F)(F)CC2)c1` [Example 347, 5-(3-(2-(4,4-Difluorocyclohexyl)ethynyl)phenoxy)-1H-1,2,3-triazole-4-carboxylic Acid], in data set [1], the pIC50 is 7.68. Also, in data set [2], the “AUC Fold over Ex. 1” value is recorded as 0.7.

As to `CCC#Cc1cccc(Oc2[nH]nnc2C(=O)O)c1` [Example 304, 5-(3-(But-1-ynyl)phenoxy)-1H-1,2,3-triazole-4-carboxylic Acid], the negative logarithm of the IC50 (pIC50) in data set [1] is 7.92. For the same molecule, the “AUC Fold over Ex. 1” value in data set [2] came to 1.6.

Regarding `O=C(O)c1nn[nH]c1Oc1ccc(C#CCC2CC2)cc1` [Example 301, 5-(4-(3-Cyclopropylprop-1-ynyl)phenoxy)-1H-1,2,3-triazole-4-carboxylic Acid], the pIC50 in data set [1] was 7.82. For the same molecule, the “AUC Fold over Ex. 1” value in data set [2] came out at 0.7.

On to `CC(C)(C)C#Cc1cccc(Oc2[nH]nnc2C(=O)O)c1` [Example 17, 5-(3-(3,3-Dimethylbut-1-ynyl)phenoxy)-1H-1,2,3-triazole-4-carboxylic Acid], for which the negative-log IC50 (pIC50) in data set [1] is 7.38. For the same molecule, in data set [2], the “AUC Fold over Ex. 1” value worked out at 1.3.

`COc1ccc(C#Cc2ccc(Oc3[nH]nnc3C(=O)O)cc2)cn1` [Example 282, 5-(4-(2-(6-Methoxypyridin-3-yl)ethynyl)phenoxy)-1H-1,2,3-triazole-4-carboxylic Acid]: the pIC50 in data set [1] was 8.52. For the same molecule, in data set [2], the “AUC Fold over Ex. 1” value amounted to 0.5.

For `O=C(O)c1nn[nH]c1Oc1cccc(C#Cc2cccnc2)c1` [Example 312, 5-(3-(2-(Pyridin-3-yl)ethynyl)phenoxy)-1H-1,2,3-triazole-4-carboxylic Acid], the pIC50 in data set [1] is 8.52. Further, the “AUC Fold over Ex. 1” value in data set [2] amounted to 0.2.

Turning to `CCC#Cc1ccc(Oc2[nH]nnc2C(=O)O)cc1` [Example 303, 5-(4-(But-1-ynyl)phenoxy)-1H-1,2,3-triazole-4-carboxylic Acid], the pIC50 in data set [1] was 7.44. Moreover, the “AUC Fold over Ex. 1” value in data set [2] was found to be 1.5.

As for `O=C(O)c1nn[nH]c1Oc1cccc(C#Cc2ccccc2)c1` [Example 139, 5-(3-(2-Phenylethynyl)phenoxy)-1H-1,2,3-triazole-4-carboxylic Acid], the pIC50 in data set [1] was 8.00. Also, in data set [2], the “AUC Fold over Ex. 1” value is given as 1.1.

Turning to `O=C(O)c1nn[nH]c1Oc1cccc(C#CCC(F)(F)F)c1` [Example 306, 5-(3-(4,4,4-Trifluorobut-1-ynyl)phenoxy)-1H-1,2,3-triazole-4-carboxylic Acid], the negative logarithm of the IC50 (pIC50) in data set [1] is 7.80. For the same molecule, the “AUC Fold over Ex. 1” value in data set [2] was found to be 0.7.

Turning to `O=C(O)c1nn[nH]c1Oc1cccc(C#CC2CCCC2)c1` [Example 29, 5-(3-(2-Cyclopentylethynyl)phenoxy)-1H-1,2,3-triazole-4-carboxylic Acid], the negative logarithm of the IC50 (pIC50) in data set [1] was 8.00. For the same molecule, the “AUC Fold over Ex. 1” value in data set [2] was 2.5.

On to `Cc1ccc(C#Cc2cccc(Oc3[nH]nnc3C(=O)O)c2)cn1` [Example 295, 5-(3-(2-(6-Methylpyridin-3-yl)ethynyl)phenoxy)-1H-1,2,3-triazole-4-carboxylic Acid], for which the negative-log IC50 (pIC50) in data set [1] is 9.00. Moreover, the “AUC Fold over Ex. 1” value in data set [2] worked out at 0.2.

Take `O=C(O)c1nn[nH]c1Oc1cccc(C#Cc2cccc3cn[nH]c23)c1` [Example 324, 5-(3-(2-(1H-Indazol-7-yl)ethynyl)phenoxy)-1H-1,2,3-triazole-4-carboxylic Acid]: the pIC50 in data set [1] is 8.40. Besides, in data set [2], the “AUC Fold over Ex. 1” value is recorded as 1.7.

As to `O=C(O)c1nn[nH]c1Oc1cccc(C#CC2CC2)c1` [Example 21, 5-(3-(2-Cyclopropylethynyl)phenoxy)-1H-1,2,3-triazole-4-carboxylic Acid], in data set [1], the negative-log IC50 (pIC50) is 8.05. Further, the “AUC Fold over Ex. 1” value in data set [2] amounted to 2.5.

Regarding `CCCC#Cc1ccc(Oc2[nH]nnc2C(=O)O)cc1` [Example 299, 5-(4-(Pent-1-ynyl)phenoxy)-1H-1,2,3-triazole-4-carboxylic Acid], in data set [1], the negative logarithm of the IC50 (pIC50) was 7.82. In data set [2], the “AUC Fold over Ex. 1” value was found to be 0.9.

On to `O=C(O)c1nn[nH]c1Oc1ccc(C#CC2CC2)cc1` [Example 20, 5-(4-(2-Cyclopropylethynyl)phenoxy)-1H-1,2,3-triazole-4-carboxylic Acid], for which the pIC50 in data set [1] is 7.96. The “AUC Fold over Ex. 1” value in data set [2] is recorded as 0.8.

On to `Cn1cc(C#Cc2cccc(Oc3[nH]nnc3C(=O)O)c2)cn1` [Example 221, 5-(3-(2-(1-Methyl-1H-pyrazol-4-yl)ethynyl)phenoxy)-1H-1,2,3-triazole-4-carboxylic Acid], for which the pIC50 in data set [1] was 9.00. Besides, in data set [2], the “AUC Fold over Ex. 1” value is given as 0.1.

In the case of `O=C(O)c1nn[nH]c1Oc1ccc(C#CC2CCCC2)cc1` [Example 28, 5-(4-(2-Cyclopentylethynyl)phenoxy)-1H-1,2,3-triazole-4-carboxylic Acid], the pIC50 in data set [1] was 7.74. For the same molecule, in data set [2], the “AUC Fold over Ex. 1” value is recorded as 0.3.

For the molecule `O=C(O)c1nn[nH]c1Oc1cccc(C#CCC2CCC2)c1` [Example 345, 5-(3-(3-Cyclobutylprop-1-ynyl)phenoxy)-1H-1,2,3-triazole-4-carboxylic Acid], in data set [1], the negative-log IC50 (pIC50) is 8.10. Further, the “AUC Fold over Ex. 1” value in data set [2] was 2.6.

As to `N#Cc1ccc(C#Cc2cc(Oc3[nH]nnc3C(=O)O)ccc2F)cc1` [Example 268, 4-(3-((4-Cyanophenyl)ethynyl)-4-fluorophenoxy)-1H-1,2,3-triazole-5-carboxylic Acid], the negative-log IC50 (pIC50) in data set [1] is 9.00. In addition, in data set [2], the “AUC Fold over Ex. 1” value stood at 0.3.

Regarding `O=C(O)c1nn[nH]c1Oc1cccc(C#CC2CCC2)c1` [Example 25, 5-(3-(2-Cyclobutylethynyl)phenoxy)-1H-1,2,3-triazole-4-carboxylic Acid], the negative logarithm of the IC50 (pIC50) in data set [1] was 7.74. Besides, in data set [2], the “AUC Fold over Ex. 1” value is given as 2.9.

Consider `CC(C)(C)C#Cc1ccc(Oc2[nH]nnc2C(=O)O)cc1` [Example 16, 5-(4-(3,3-Dimethylbut-1-ynyl)phenoxy)-1H-1,2,3-triazole-4-carboxylic Acid], for which the negative-log IC50 (pIC50) in data set [1] was 6.68. The “AUC Fold over Ex. 1” value in data set [2] is 0.2.

With `O=C(O)c1nn[nH]c1Oc1cccc(C#CC2CCOCC2)c1` [Example 41, 5-(3-(2-(Tetrahydro-2H-pyran-4-yl)ethynyl)phenoxy)-1H-1,2,3-triazole-4-carboxylic Acid], in data set [1], the negative-log IC50 (pIC50) was 7.89. In addition, the “AUC Fold over Ex. 1” value in data set [2] was 0.1.

Regarding `Cn1ncc2c(C#Cc3cccc(Oc4[nH]nnc4C(=O)O)c3)cccc21` [Example 315, 5-(3-(2-(1-Methyl-1H-indazol-4-yl)ethynyl)phenoxy)-1H-1,2,3-triazole-4-carboxylic Acid], the pIC50 in data set [1] was 8.70. In data set [2], the “AUC Fold over Ex. 1” value is listed as 0.3.

Turning to `CC#Cc1cccc(Oc2[nH]nnc2C(=O)O)c1` [Example 6, 5-(3-(Prop-1-ynyl)phenoxy)-1H-1,2,3-triazole-4-carboxylic Acid], in data set [1], the pIC50 was 8.15. The “AUC Fold over Ex. 1” value in data set [2] was found to be 0.8.

`O=C(O)c1nn[nH]c1Oc1cccc(C#CCC2CCCC2)c1` [Example 344, 5-(3-(3-Cyclopentylprop-1-ynyl)phenoxy)-1H-1,2,3-triazole-4-carboxylic Acid]: the pIC50 in data set [1] was 8.40. In addition, in data set [2], the “AUC Fold over Ex. 1” value is reported as 1.9.

For the molecule `O=C(O)c1nn[nH]c1Oc1ccc(C#CCC(F)(F)F)cc1` [Example 305, 5-(4-(4,4,4-Trifluorobut-1-ynyl)phenoxy)-1H-1,2,3-triazole-4-carboxylic Acid], in data set [1], the pIC50 is 7.74. The “AUC Fold over Ex. 1” value in data set [2] is recorded as 0.3.

The record behind these values is patent US11504367B2, “Compounds and methods for treating oxalate-related diseases” (OxaluRx, Inc., priority 2019, dated 2022).
